The test system of one data set is P. vulgaris, 08601. Kind of data set: Antibacterial activity MIC, Japanese Society of Chemotherapy standard procedure. The data set is classed as cell-based. The note with it: Proteus vulgaris.
For the next data set, the system named is E. coli NIHJ. The description is as above. The settings on record: Escherichia coli.
The subject of another data set is S. marscecens, 10100. The data set is described as above.
Another data set relates to P. aeruginosa, 32104. The description is as above. The settings on record: Pseudomonas aeruginosa.
Another data set deals with P. aeruginosa, 32121. The data set is described as above. The note with it: Pseudomonas aeruginosa.
A further data set concerns S. aureus, 209P. The description is as above. The note with it: Staphylococcus aureus.
The subject of the next data set is S. epidermidis, 56500. The description is as above. The settings on record: Staphylococcus epidermidis.
A further data set has as its system E. faecalis, ATCC 19433. The description is as above. The settings on record: Enterococcus faecalis, ATCC19433.
The test system of another data set is S. aureus, 87037. Described as above. The settings on record: Staphylococcus aureus.
The test system of the next data set is S. pneumoniae, J24. The data set is described as above. The settings on record: Streptococcus pneumoniae.
Data set [1] concerns Mycobacterium tuberculosis (sensitive bacteria). In words: Anti-mycobacterium tuberculosis activity MIC, sensitive bacteria. The data set is classed as cell-based.
For another data set, the system named is E. coli E77156 strain. Kind of data set: Therapeutic efficacy in rat simple cystitis model (E. coli). The data set is classed as in vivo. The settings on record: orally once at 5, 20 and 80 mg/kg on the next day of infection, in comparison with the count at beginning of the treatment, FIG. 2.
A short description of data set [2]: Moisture sorption and desorption behavior. Type of data set: physicochemical. The note with it: atmospheric pressure type automatic water vapor adsorption device; FIG. 5. The text has this:
Moisture sorption and desorption behavior was examined with an atmospheric pressure type automatic water vapor adsorption device for 7-[(7S)-7-amino-7-methyl-5-azaspiro[2.4]heptan-5-yl]-6-fluoro-1-[(1R,2S)-2-fluorocyclopropyl]-8-methoxy-1,4-dihydro-4-oxoquinoline-3-carboxylic acid hemihydrate obtained in Example 1.

The nature of data set [3]: Change in moisture sorption and desorption after thermal dehydration. Type of data set: physicochemical. The settings on record: thermal dehydration (60° C.); FIG. 6. The method, then: Change in moisture sorption and desorption after thermal dehydration (60° C.) was examined for 7-[(7S)-7-amino-7-methyl-5-azaspiro[2.4]heptan-5-yl]-6-fluoro-1-[(1R,2S)-2-fluorocyclopropyl]-8-methoxy-1,4-dihydro-4-oxoquinoline-3-carboxylic acid hemihydrate obtained in Example 1.

Data set [4] is described as follows: Change in crystalline form after thermal dehydration. The note with it: X-ray diffraction on thermal treatments; FIG. 7. Type of data set: physicochemical. An excerpt: Change in crystalline form by thermal treatment was examined for 7-[(7S)-7-amino-7-methyl-5-azaspiro[2.4]heptan-5-yl]-6-fluoro-1-[(1R,2S)-2-fluorocyclopropyl]-8-methoxy-1,4-dihydro-4-oxoquinoline-3-carboxylic acid hemihydrate obtained in Example 1.

Data set [5] in a line: Crystal stability on storage at controlled relative humidity. The data set is classed as physicochemical. The settings on record: 25° C., 3 days. The method, then: Weight change and crystalline form were examined as to 7-[(7S)-7-amino-7-methyl-5-azaspiro[2.4]heptan-5-yl-6-fluoro-1-[(1R,2S)-2-fluorocyclopropyl]-8-methoxy-1,4-dihydro-4-oxoquinoline-3-carboxylic acid hemihydrate obtained in Example 1 by being stored under the condition of 0, 52 or 93% of relative humidity, at 25° C. for 3 days. The crystalline form was evaluated by measuring with powder X-ray diffraction and thermal analysis.

Data set [6] is classed as physicochemical. Here is the method:
7-[(7S)-7-amino-7-methyl-5-azaspiro[2.4]heptan-5-yl]-6-fluoro-1-[(1R,2S)-2-fluorocyclopropyl]-8-methoxy-1,4-dihydro-4-oxoquinoline-3-carboxylic acid hemihydrate obtained in Example 1 was each stored for 2 weeks under wet heat condition (40° C., 75% RH), dry heat condition (50° C., of 0% RH) and photo irradiation condition.

This note sets out measurements from US8003666B2, “Hydrate for medical purposes” (priority 2006, dated 2011).

Structures are written as SMILES. Values after ≈ are worked out from the molar mass of the structure shown. Bounds are passed on as bounds.

In the case of `O=C(O)c1cn(C2CC2)c2cc(N3CCNCC3)c(F)cc2c1=O` [CPFX, ciprofloxacin], the MIC was at most 0.003 µg/mL against P. vulgaris, 08601; at most 0.003 µg/mL in the data set on E. coli NIHJ; 0.025 µg/mL (≈ 0.0754 µM) against S. marscecens, 10100; 0.05 µg/mL (≈ 0.151 µM) in the data set on P. aeruginosa, 32104; 0.025 µg/mL (≈ 0.0754 µM) with P. aeruginosa, 32121; 0.1 µg/mL (≈ 0.302 µM) with S. aureus, 209P. The MIC in the data set on S. epidermidis, 56500 was 0.2 µg/mL (≈ 0.604 µM); in the data set with E. faecalis, ATCC 19433, 0.78 µg/mL (≈ 2.35 µM); in the data set on S. aureus, 87037, over 6.25 µg/mL; in the data set with S. pneumoniae, J24, 0.39 µg/mL (≈ 1.18 µM).
For the molecule `COc1c(N2CCNC(C)C2)c(F)cc2c(=O)c(C(=O)O)cn(C3CC3)c12` (centres unmarked) [GTFX, gatifloxacin], the MIC came out at 0.006 µg/mL (≈ 0.016 µM) in the data set with P. vulgaris, 08601; 0.006 µg/mL (≈ 0.016 µM) with E. coli NIHJ; 0.1 µg/mL (≈ 0.266 µM) with S. marscecens, 10100; 0.2 µg/mL (≈ 0.533 µM) with P. aeruginosa, 32104; 0.1 µg/mL (≈ 0.266 µM) in the data set on P. aeruginosa, 32121; 0.05 µg/mL (≈ 0.133 µM) in the data set on S. aureus, 209P. For the same molecule, the minimum inhibitory concentration (MIC) came out at 0.2 µg/mL (≈ 0.533 µM) in the data set with S. epidermidis, 56500; 0.39 µg/mL (≈ 1.04 µM) in the data set with E. faecalis, ATCC 19433; 1.56 µg/mL (≈ 4.16 µM) with S. aureus, 87037; 0.2 µg/mL (≈ 0.533 µM) in the data set on S. pneumoniae, J24.
Regarding `COc1c(N2CC3(CC3)[C@](C)(N)C2)c(F)cc2c(=O)c(C(=O)O)cn([C@@H]3C[C@@H]3F)c12` [Hemihydrate, 7-[(7S)-7-Amino-7-methyl-5-azaspiro[2.4]heptan-5-yl]-6-fluoro-1-[(1R,2S)-2-fluorocyclopropyl]-8-methoxy-1,4-dihydro-4-oxoquinoline-3-carboxylic acid hemihydrate], the MIC is 0.025 µg/mL in the data set on P. vulgaris, 08601; 0.03 µg/mL in data set [1] (H37RV, strain H37Rv); 0.03 µg/mL in data set [1] (strain Kurono); 0.03 µg/mL in data set [1] (strain Ravenel); 0.06 µg/mL in [1] (strain TB-s 2); 0.06 µg/mL in data set [1] (strain TB-s 3). Further, the MIC came to 0.06 µg/mL in data set [1] (strain TB-s 4); 0.06 µg/mL in data set [1] (strain TB-s 5); 0.06 µg/mL in data set [1] (strain TB-s 6); 0.06 µg/mL in data set [1] (strain TB-s 7); 0.03 µg/mL in [1] (strain TB-s 8); 0.06 µg/mL in data set [1] (strain TB-s 9). Moreover, the minimal inhibitory concentration (MIC) in data set [1] (strain TB-s 10) stood at 0.03 µg/mL; in data set [1] (strain TB-s 11), 0.06 µg/mL; in [1] (strain TB-s 12), 0.125 µg/mL; in data set [1] (strain TB-s 13) it was 0.06 µg/mL; in data set [1] (strain TB-s 14), 0.06 µg/mL; in [1] (strain TB-s 15), 0.06 µg/mL. For the same molecule, the MIC in [1] (strain TB-s 16), in [1] (strain TB-s 17), in data set [1] (strain TB-s 18), in data set [1] (strain TB-s 19), in data set [1] (strain TB-s 20) and in data set [1] (strain TB-s 21) was 0.06 µg/mL in each case. The minimal inhibitory concentration (MIC) in [1] (strain TB-s 22) came out at 0.03 µg/mL; in the data set with E. coli NIHJ it was 0.025 µg/mL; in the data set on S. marscecens, 10100, 0.1 µg/mL; against P. aeruginosa, 32104 it was 0.39 µg/mL; against P. aeruginosa, 32121, 0.2 µg/mL; in the data set on S. aureus, 209P, 0.025 µg/mL. Besides, the MIC against S. epidermidis, 56500 turned out to be 0.1 µg/mL; with E. faecalis, ATCC 19433 it was 0.2 µg/mL; against S. aureus, 87037, 0.78 µg/mL; against S. pneumoniae, J24, 0.1 µg/mL. Besides, the “Bacterial count in the bladder” value in the data set on E. coli E77156 strain is reported as “statistically significant decrease in bacterial count”. Further, the “Weight change as humidity changes” value in [2] is listed as at most 1%. For the same molecule, the “Moisture sorption and desorption after thermal dehydration” value in [3] is “rehydrated rapidly after being dehydrated”. Further, the “Crystalline form after thermal dehydration” value in data set [4] is listed as “had its crystalline state even after being dehydrated”. Moreover, the results for the “Weight Change (%)” value in data set [5] (0% RH), in data set [5] (52% RH) and in data set [5] (93% RH) were 0.00%, 0.43% and 0.61%, respectively. Moreover, the “Crystalline form after storage” value in [5] (0, 52 or 93% relative humidity, powder X-ray diffraction and thermal analysis) is on record as “the crystalline form did not change”. The “Observation under photo irradiation condition” value in data set [6] (photo irradiation condition) is “color change and some decrease in remaining ratio”. Moreover, the “Content under wet heat and dry heat condition” value in [6] (wet heat (40° C., 75% RH) and dry heat (50° C., 0% RH), 2 weeks) was “stable and its content was not decreased”.
With `C[C@H]1COc2c(N3CCN(C)CC3)c(F)cc3c(=O)c(C(=O)O)cn1c23` [LVFX, levofloxacin], the minimal inhibitory concentration (MIC) against P. vulgaris, 08601 stood at 0.012 µg/mL (≈ 0.0332 µM); in the data set with E. coli NIHJ, 0.012 µg/mL (≈ 0.0332 µM); in the data set with S. marscecens, 10100, 0.1 µg/mL (≈ 0.277 µM); with P. aeruginosa, 32104, 0.2 µg/mL (≈ 0.553 µM); in the data set on P. aeruginosa, 32121, 0.1 µg/mL (≈ 0.277 µM); in the data set on S. aureus, 209P, 0.2 µg/mL (≈ 0.553 µM). The MIC with S. epidermidis, 56500 was 0.39 µg/mL (≈ 1.08 µM); against E. faecalis, ATCC 19433, 0.78 µg/mL (≈ 2.16 µM); with S. aureus, 87037 it was over 6.25 µg/mL; against S. pneumoniae, J24, 0.78 µg/mL (≈ 2.16 µM).
In the case of `CO[C@H]1/C=C/O[C@@]2(C)Oc3c(C)c(O)c4c(O)c(c(/C=N/N5CCN(C)CC5)c(O)c4c3C2=O)NC(=O)/C(C)=C\C=C\[C@H](C)[C@H](O)[C@@H](C)[C@@H](O)[C@@H](C)[C@H](OC(C)=O)[C@@H]1C` [RFP, rifampicin], the minimum inhibitory concentration (MIC) in [1] (H37RV, strain H37Rv) was 0.125 µg/mL (≈ 0.152 µM); in [1] (strain Kurono) it was 0.06 µg/mL (≈ 0.0729 µM); in data set [1] (strain Ravenel), 0.125 µg/mL (≈ 0.152 µM); in [1] (strain TB-s 2) it was 0.03 µg/mL (≈ 0.0365 µM); in data set [1] (strain TB-s 3) it was 0.125 µg/mL (≈ 0.152 µM); in data set [1] (strain TB-s 4) it was 0.06 µg/mL (≈ 0.0729 µM). Further, the MIC in [1] (strain TB-s 5) amounted to 0.06 µg/mL (≈ 0.0729 µM); in data set [1] (strain TB-s 6), 0.125 µg/mL (≈ 0.152 µM); in data set [1] (strain TB-s 7) it was 0.06 µg/mL (≈ 0.0729 µM); in [1] (strain TB-s 8), 0.015 µg/mL (≈ 0.0182 µM); in data set [1] (strain TB-s 9), 0.06 µg/mL (≈ 0.0729 µM); in [1] (strain TB-s 10), 0.06 µg/mL (≈ 0.0729 µM). Also, the minimal inhibitory concentration (MIC) in [1] (strain TB-s 11) amounted to 0.06 µg/mL (≈ 0.0729 µM); in data set [1] (strain TB-s 12), 0.125 µg/mL (≈ 0.152 µM); in data set [1] (strain TB-s 13) it was 0.06 µg/mL (≈ 0.0729 µM); in data set [1] (strain TB-s 14), 0.03 µg/mL (≈ 0.0365 µM); in [1] (strain TB-s 15), 0.06 µg/mL (≈ 0.0729 µM); in data set [1] (strain TB-s 16), 0.06 µg/mL (≈ 0.0729 µM). In addition, the MIC in [1] (strain TB-s 17) was 0.06 µg/mL (≈ 0.0729 µM); in data set [1] (strain TB-s 18), 0.03 µg/mL (≈ 0.0365 µM); in data set [1] (strain TB-s 19), 0.125 µg/mL (≈ 0.152 µM); in [1] (strain TB-s 20) it was 0.25 µg/mL (≈ 0.304 µM); in data set [1] (strain TB-s 21), 0.03 µg/mL (≈ 0.0365 µM); in [1] (strain TB-s 22) it was 0.015 µg/mL (≈ 0.0182 µM).
